Data as given in ChEMBL document CHEMBL3885861, “Open TG-GATES”.

Species on record: Rattus norvegicus
Assay: Open TG-GATES - Regimen: Single
Type: toxicity, organism-based, Sprague-Dawley
Set-up: regimen Single, gender Male, age 6 weeks
Conditions: in vivo, iv, 0 mg/kg, route intravenous injection, dose level Control; for Bas / Eos / Fbg / Ht / Lym / MCH / MCHC / MCV / Mono / PT / Plat / RBC / Ret / Neu: tissue Blood; for KIDNEY_L / KIDNEY_R / KIDNEY_TOTAL: tissue Kidney; for LIVER: tissue Liver

`COc1cccc2c1C(=O)c1c(O)c3c(c(O)c1C2=O)C[C@@](O)(C(=O)CO)C[C@@H]3O[C@H]1C[C@H](N)[C@H](O)[C@H](C)O1` [DOXORUBICIN] gave a TERMINAL_BW (3 h) of 210.4 g, a Bas (3 h) of 0% and an Eos (3 h) of 0.8%. The Fbg (3 h) was 277.8 mg/dL, the Ht (3 h) was 39.4% and the Lym (3 h) was 84.4%. For the same compound, the MCH (3 h) was 22 pg, the MCHC (3 h) was 34.9% and the MCV (3 h) was 63.1 fL. The Mono (3 h) was 2.6%, the PT (3 h) was 16.3 s and the Plat (3 h) was 122.6 x10_4/uL. It also gave an RBC (3 h) of 625 x10_4/ul, a Ret (3 h) of 6.3% and a KIDNEY_L (3 h) of 0.9 g. It also gave a KIDNEY_R (3 h) of 0.9 g, a KIDNEY_TOTAL (3 h) of 1.8 g and an LIVER (3 h) of 9.4 g. For the same compound, the ALP (3 h, tissue Plasma) was 1425.2 IU/L, the ALT (3 h, tissue Plasma) was 43.6 IU/L and the AST (3 h, tissue Plasma) was 77 IU/L. For the same compound, the CRE (3 h, tissue Plasma) was 0.2 mg/dL, the DBIL (3 h, tissue Plasma) was 0 mg/dL and the GLC (3 h, tissue Plasma) was 181.8 mg/dL. The K (3 h, tissue Plasma) was 4.5 meq/L, the LDH (3 h, tissue Plasma) was 185.6 IU/L and the Na (3 h, tissue Plasma) was 142.2 meq/L. For the same compound, the RALB (3 h, tissue Plasma) was 3 g/dL, the TBIL (3 h, tissue Plasma) was 0.008 mg/dL and the TC (3 h, tissue Plasma) was 77.6 mg/dL. It also gave a TG (3 h, tissue Plasma) of 87.2 mg/dL, a TP (3 h, tissue Plasma) of 5.2 g/dL and a gamma-GTP (3 h, tissue Plasma) of 1.2 IU/L. For the same compound, the TERMINAL_BW (6 h) was 211.5 g, the Bas (6 h) was 0% and the Eos (6 h) was 0.8%. The Fbg (6 h) was 292.4 mg/dL, the Ht (6 h) was 38.3% and the Lym (6 h) was 76%. The MCH (6 h) was 21.5 pg, the MCHC (6 h) was 34.4% and the MCV (6 h) was 62.4 fL. For the same compound, the Mono (6 h) was 2.8%, the Neu (6 h) was 19.2% and the PT (6 h) was 16.3 s. For the same compound, the Plat (6 h) was 127.3 x10_4/uL, the RBC (6 h) was 614.6 x10_4/ul and the Ret (6 h) was 6.9%. It also gave a KIDNEY_L (6 h) of 0.9 g, a KIDNEY_R (6 h) of 0.9 g and a KIDNEY_TOTAL (6 h) of 1.8 g. It also gave an LIVER (6 h) of 8.9 g, an ALP (6 h, tissue Plasma) of 1252 IU/L and an ALT (6 h, tissue Plasma) of 46.6 IU/L. For the same compound, the AST (6 h, tissue Plasma) was 90.2 IU/L, the CRE (6 h, tissue Plasma) was 0.2 mg/dL and the DBIL (6 h, tissue Plasma) was 0.004 mg/dL. The GLC (6 h, tissue Plasma) was 172.2 mg/dL, the K (6 h, tissue Plasma) was 4.3 meq/L and the Na (6 h, tissue Plasma) was 140.6 meq/L. For the same compound, the RALB (6 h, tissue Plasma) was 2.9 g/dL, the TBIL (6 h, tissue Plasma) was 0.026 mg/dL and the TC (6 h, tissue Plasma) was 71.8 mg/dL. It also gave a TG (6 h, tissue Plasma) of 63 mg/dL, a TP (6 h, tissue Plasma) of 5.1 g/dL and a gamma-GTP (6 h, tissue Plasma) of 1.6 IU/L. For the same compound, the TERMINAL_BW (9 h) was 208 g, the Bas (9 h) was 0% and the Eos (9 h) was 0.6%. For the same compound, the Fbg (9 h) was 298.2 mg/dL, the Ht (9 h) was 38.9% and the Lym (9 h) was 77.8%. It also gave an MCH (9 h) of 21.6 pg, an MCHC (9 h) of 34.2% and an MCV (9 h) of 63.2 fL. The Mono (9 h) was 2.8%, the PT (9 h) was 16.4 s and the Plat (9 h) was 116.3 x10_4/uL. It also gave an RBC (9 h) of 615.4 x10_4/ul, a Ret (9 h) of 6.5% and a KIDNEY_L (9 h) of 0.9 g. For the same compound, the KIDNEY_R (9 h) was 1 g, the KIDNEY_TOTAL (9 h) was 1.9 g and the LIVER (9 h) was 8.6 g. It also gave an ALP (9 h, tissue Plasma) of 1422.6 IU/L, an ALT (9 h, tissue Plasma) of 39.8 IU/L and an AST (9 h, tissue Plasma) of 77.6 IU/L. The CRE (9 h, tissue Plasma) was 0.2 mg/dL, the DBIL (9 h, tissue Plasma) was 0 mg/dL and the GLC (9 h, tissue Plasma) was 201.8 mg/dL. The K (9 h, tissue Plasma) was 4.3 meq/L, the Na (9 h, tissue Plasma) was 140.2 meq/L and the RALB (9 h, tissue Plasma) was 2.9 g/dL. The TBIL (9 h, tissue Plasma) was 0.01 mg/dL, the TC (9 h, tissue Plasma) was 63 mg/dL and the TG (9 h, tissue Plasma) was 65.6 mg/dL. It also gave a TP (9 h, tissue Plasma) of 5.3 g/dL, a gamma-GTP (9 h, tissue Plasma) of 1.4 IU/L and a TERMINAL_BW (24 h) of 223.8 g. The Bas (24 h) was 0%, the Eos (24 h) was 1% and the Fbg (24 h) was 298 mg/dL. It also gave a Ht (24 h) of 37.5%, a Lym (24 h) of 77.6% and an MCH (24 h) of 22.4 pg. For the same compound, the MCHC (24 h) was 36%, the MCV (24 h) was 62.2 fL and the Mono (24 h) was 4%. The Neu (24 h) was 16.4%, the PT (24 h) was 16.4 s and the Plat (24 h) was 117.3 x10_4/uL. The RBC (24 h) was 602.6 x10_4/ul, the Ret (24 h) was 7% and the KIDNEY_L (24 h) was 0.9 g. It also gave a KIDNEY_R (24 h) of 1 g, a KIDNEY_TOTAL (24 h) of 1.9 g and an ALP (24 h, tissue Plasma) of 1402 IU/L. The ALT (24 h, tissue Plasma) was 41 IU/L, the AST (24 h, tissue Plasma) was 68 IU/L and the CRE (24 h, tissue Plasma) was 0.2 mg/dL. The DBIL (24 h, tissue Plasma) was 0.002 mg/dL, the GLC (24 h, tissue Plasma) was 191.2 mg/dL and the K (24 h, tissue Plasma) was 4.5 meq/L. The Na (24 h, tissue Plasma) was 141.6 meq/L, the RALB (24 h, tissue Plasma) was 3.1 g/dL and the TBIL (24 h, tissue Plasma) was 0.014 mg/dL. The TC (24 h, tissue Plasma) was 77.6 mg/dL, the TG (24 h, tissue Plasma) was 113 mg/dL and the TP (24 h, tissue Plasma) was 5.5 g/dL. For the same compound, the gamma-GTP (24 h, tissue Plasma) was 1.4 IU/L.
